The source of these data is patent publication US9376442B2, “Methylpyrrolopyrimidinecarboxamides” (Takeda GmbH, priority 2009, dated 2016).

For experiment [1], the target named is T1, PDE5A1 (Homo sapiens, UniProt O76074).
T1 construct: from tissue; host or cells: human platelets from fresh donor blood (10,000 x g supernatant of sonicated lysate)
In words: Inhibition of type 5 phosphodiesterase (PDE5) activity, modified SPA test with human platelet lysate. The experiment is classed as biochemical. Particulars: 0.5 μM cGMP, read-out: PDE5A1 inhibitory values [measured as −log IC50 (mol/l)] (converted). The procedure, abridged:
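Scintillation proximity assay with [3H]cGMP tracer at 0.5 μM total cGMP, stopped after 15 min with beads containing IBMX. PDE3 and PDE2 activities suppressed with motapizone (1 μM) and a PDE2 inhibitor (10 nM). Human platelet supernatant served as the enzyme, with compound preincubated 5 min at 37° C; IC50 values from concentration-effect curves.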

The target in experiment [2] is T2, PDE4B1 (Homo sapiens, UniProt Q07343).
T2 construct: made in house; host or cells: SF21 insect cells (baculovirus; pCRBac vector), 1000 x g supernatant of homogenate
The experiment in a line: Inhibition of type 4 phosphodiesterase (PDE4) activity, modified SPA test with recombinant PDE4B1 expressed in SF21 insect cells. The format is biochemical. The conditions noted are these: recombinant PDE4B1, 0.5 μM cAMP, read-out: PDE4B1 inhibitory values [measured as −log IC50 (mol/l)] (converted). The procedure, abridged:
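Modified [3H]cAMP SPA using 1000×g supernatant of SF21 cells expressing recombinant human PDE4B1, in 20 mM Tris pH 7.4, 0.1 mg/ml BSA, 5 mM Mg2+, 0.5 μM cAMP. After 5 min preincubation at 37 °C, 15 min reaction, stopped with SPA beads plus IBMX; IC50 by non-linear regression.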

In experiment [3] the test system is mice. Particulars: bleomycin-induced lung fibrosis model in mice; Cortijo et al. 2009; cited from earlier work.
Experiment [4] concerns patients with pulmonary fibrosis. The conditions noted are these: Ghofrani 2002, Collard 2007; cited from earlier work.
Experiment [5] deals with bleomycin-induced pulmonary fibrosis and pulmonary hypertension. Particulars: Hemnes et al. 2008; cited from earlier work.

Each structure is given as a SMILES string.

T2 sequence (Q07343 whole entry): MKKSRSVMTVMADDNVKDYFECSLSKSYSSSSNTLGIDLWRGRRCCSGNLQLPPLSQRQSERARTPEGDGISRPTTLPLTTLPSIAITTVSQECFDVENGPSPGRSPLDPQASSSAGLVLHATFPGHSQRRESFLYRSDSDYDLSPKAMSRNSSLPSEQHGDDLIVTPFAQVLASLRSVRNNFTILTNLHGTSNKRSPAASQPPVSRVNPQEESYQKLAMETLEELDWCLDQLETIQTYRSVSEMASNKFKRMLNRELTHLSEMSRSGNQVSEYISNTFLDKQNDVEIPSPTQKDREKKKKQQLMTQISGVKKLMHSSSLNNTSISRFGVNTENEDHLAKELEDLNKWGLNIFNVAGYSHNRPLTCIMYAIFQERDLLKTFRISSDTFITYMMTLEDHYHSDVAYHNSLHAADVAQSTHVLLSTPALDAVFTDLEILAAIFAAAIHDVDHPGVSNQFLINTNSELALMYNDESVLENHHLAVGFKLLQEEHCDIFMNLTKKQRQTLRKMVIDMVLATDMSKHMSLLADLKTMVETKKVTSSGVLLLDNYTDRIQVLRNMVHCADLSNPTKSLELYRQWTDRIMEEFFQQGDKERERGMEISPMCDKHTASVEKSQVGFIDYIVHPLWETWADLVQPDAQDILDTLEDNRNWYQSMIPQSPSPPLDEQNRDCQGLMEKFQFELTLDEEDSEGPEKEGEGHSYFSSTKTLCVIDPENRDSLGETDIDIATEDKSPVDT

On to `CC(=O)N1C[C@@H](NC(=O)c2c(C)[nH]c3c(-c4cc(C(F)F)ccc4OCC4CC4)ncnc23)C[C@@H]1C` [Example P24, N-[(3S,5S)-1-Acetyl-5-methylpyrrolidin-3-yl]-4-[2-(cyclopropylmethoxy)-5-(difluoromethyl)phenyl]-6-methyl-5H-pyrrolo[3,2-d]pyrimidine-7-carboxamide], for which the IC50 in experiment [1] was 1 to 10 nM; in experiment [2], below 100 nM.
The like results for `CCC(=O)N1C[C@@H](NC(=O)c2c(C)[nH]c3c(-c4cc(C(F)F)ccc4OCC4CC4)ncnc23)C[C@@H]1C` [Example P25, 4-[2-(Cyclopropylmethoxy)-5-(difluoromethyl)phenyl]-6-methyl-N-[(3S,5S)-5-methyl-1-propanoylpyrrolidin-3-yl]-5H-pyrrolo[3,2-d]pyrimidine-7-carboxamide] were, in that order, 1 to 10 nM and below 100 nM.
`COCC(=O)N1C[C@@H](NC(=O)c2c(C)[nH]c3c(-c4cc(C(F)F)ccc4OCC4CC4)ncnc23)C[C@@H]1C` [Example P26, 4-[2-(Cyclopropylmethoxy)-5-(difluoromethyl)phenyl]-N-[(3S,5S)-1-(methoxyacetyl)-5-methylpyrrolidin-3-yl]-6-methyl-5H-pyrrolo[3,2-d]pyrimidine-7-carboxamide]: the IC50 in experiment [1] was 1 to 10 nM; in experiment [2], below 100 nM.
For `CC(=O)N[C@H]1CC[C@H](NC(=O)c2c(C)[nH]c3c(-c4cc(C(F)F)ccc4OCC4CC4)ncnc23)C1` [Example P89, N-[(1S,3S)-3-(Acetylamino)cyclopentyl]-4-[2-(cyclopropylmethoxy)-5-(difluoromethyl)phenyl]-6-methyl-5H-pyrrolo[3,2-d]pyrimidine-7-carboxamide], the IC50 in experiment [1] is below 1 nM; in experiment [2], below 100 nM.
Turning to `CCC(=O)N[C@H]1CC[C@H](NC(=O)c2c(C)[nH]c3c(-c4cc(C(F)F)ccc4OCC4CC4)ncnc23)C1` [Example P90, 4-[2-(Cyclopropylmethoxy)-5-(difluoromethyl)phenyl]-6-methyl-N-[(1S,3S)-3-(propanoylamino)cyclopentyl]-5H-pyrrolo[3,2-d]pyrimidine-7-carboxamide], the results for the IC50 in experiment [1] and in experiment [2] were below 1 nM and below 100 nM, respectively.
On to `COCC(=O)N[C@H]1CC[C@H](NC(=O)c2c(C)[nH]c3c(-c4cc(C(F)F)ccc4OCC4CC4)ncnc23)C1` [Example P91, 4-[2-(Cyclopropylmethoxy)-5-(difluoromethyl)phenyl]-N-{(1S,3S)-3-[(methoxyacetyl)amino]cyclopentyl}-6-methyl-5H-pyrrolo[3,2-d]pyrimidine-7-carboxamide], for which the IC50 in experiment [1] was below 1 nM; in experiment [2], below 100 nM.
For `O=C(Nc1c(Cl)cncc1Cl)c1ccc(OC(F)F)c(OCC2CC2)c1` [roflumilast], the fibrosis development entry in experiment [3] is recorded as “inhibit fibrosis development”.
On to `CCCc1nn(C)c2c(=O)[nH]c(-c3cc(S(=O)(=O)N4CCN(C)CC4)ccc3OCC)nc12` [sildenafil], for which, in experiment [4], the exercise tolerance result is recorded as “increases exercise tolerance”; the “lung hemodynamic (vascular resistance and ventilation/perfusion matching)” value is reported as “improves lung hemodynamic”. Moreover, the “bleomycin-induced pulmonary fibrosis and pulmonary hypertension” value in experiment [5] is “attenuates bleomycin-induced pulmonary fibrosis and pulmonary hypertension”.
